How the values were obtained:
[1] = test system: HL60 cells; assay: DNA fragmentation by agarose gel electrophoresis; format: cell-based; conditions: 24 hrs, FIG. 9
Procedure: DNA fragmentation as a representative characteristic of apoptosis was assessed at a level of concentration including cytotoxicity. Apoptosis is a programmed cell death, characterized by complicate biological characteristics including morphological changes, chromatin condensation, a formation of apoptotic body and the like. This experiment was performed to assess DNA fragmentation among them. HL60 cells were seeded (1×10^7 cell/10 ml), and incubated in 5% CO2 incubator at 37° C. for 24 hrs. Then, N,N-dimethylphytosphingosine and control substances (at concentration indicated in FIG. 9) was added and incubated for 24 hrs. All of substances were dissolved in EtOH. Cells were recovered by centrifugation, and then cell membrane was disrupted by adding lysis buffer (5 mM Tris-HCl (PH 7.4), 20 mM EDTA, 0.5% Triton X-100). After centrifuging at 12,000 rpm for 10 min, supernatant in which DNA fragments were dissolved was recovered. To the supernatant was added equivalent amount of phenol, vortexed, centrifuged at 12,000 rpm for 10 min, and then supernatant was recovered carefully. DNA extraction with phenol:chloroform:isoamylalcohol (25:24:1) or chloroform was performed in a same manner as the method with phenol. To the supernatant which was treated by various solvents was added a solution of 0.3 M sodium acetate (pH 5.2) in EtOH, and precipitated in a freezer at −20° C. for 24 hrs. After centrifuging at 12,000 rpm for 10 min, supernatant was decanted to obtain DNA pellets. 70% EtOH was added to the remaining DNA pellets to wash them. Again, after centrifuging, supernatant was discarded, the remaining DNA fragments were dissolved in TE buffer. To remove RNA in addition-to DNA fragments, […] of 0.5 mg/ml RNAse was added, and reacted at 37° C. for 30 min. DNA fragmentation was found by 1.2% agarose gel electrophoresis. […] N-acylsphingosine was known as apoptosis inducing substance, and DNA fragmentation was one example of such effects. […] Accordingly, it is considered that N,N-dimethylphytosphingosine of the present invention has excellent apoptosis inducing effect compared to N-acylsphingosine. It was not observed that CLA ceramide belonging to sphingosineceramide induced DNA fragmentation.
The following is the meaning of the symbols used in FIG. 9. • SM: DNA size marker • EtOH: Ethanol • 1: DMPS 12.5 μM • 2: DMPS 25.0 μM • 3: DMPS 50.0 μM • 4: C2 ceramide 25.0 μM • 5: C2 ceramide 50.0 μM • 6: CLA ceramide 25.0 μM • 7: CLA ceramide 50.0 μM

[2] = test system: LLC-PK1 cell; assay: MTT assay, apoptosis inducing effect on LLC-PK1 cell; format: cell-based; conditions: FIG. 6
Procedure: (§1) This experiment was performed by MTT assay. MTT (3-[4,5-Dimethylthiazol-2-yl]-2,5-diphenyltetrazolium) is a staining reagent displaying yellow color when it is dissolved in medium, but it is discolored to violet formazan by active dehydrogenase in mitochondria of viable cell. […] HL60 cell lines were seeded to 96-well plate at appropriate concentration, and incubated in 5% CO2 incubator at 37° C. for 24 hrs. Thereafter, individual sample to be assessed on apoptosis effect, i.e. phytosphingosine, C2 phytoceramide, tetraacetylphytosphingosine, C6 phytoceramide, C8 phytoceramide, C3 ceramide, sphinganine, dimethylsphingosine and dimethylphytosphingosine was diluted with serum free RPMI. Cells were treated with […]˜50 µM of the dilutions, and incubated for 24 hrs. MTT (final concentration: 0.5 mg/ml) was loaded to the individual well. After incubating for another 3 hrs and dissolving the staining reagent with pipette, the absorbance was measured at 570 nm.
This Experiment was carried out in an identical manner to that described for example 3, except for using LLC-PK1 cell to induce apoptosis.

[3] = test system: sphingosine kinase from mouse; assay: Inhibition of sphingosine kinase activity ([32P]ATP, sphingosine-1-phosphate formation); format: biochemical; conditions: compared with dimethylsphingosine; 37° C. for 20 min; FIG. 3
Procedure: The same experiment was performed on dimethylsphingosine to compare with the effect of dimethylphytosphingosine of the present invention. Sphingosine kinase assay buffer was prepared as follows to determine an activity of sphingosine kinase: 20 mM Tris buffer, pH 7.2, 10 mM MgCl2, 20% glycerol, 1 mM dithiothreitol, 1 mM Na3VO4, 15 mM NaF, […] leupeptin and aprotinin, 1 mM PMSF and 0.5 mM 4-deoxypyridoxine.
The reaction was 200 μl, each 50 μM dimethylsphingosine and dimethylphytosphingosine dissolved in 0.25% Triton X-100, 10 ng of sphingosine kinase from mouse and 1 mM [32P] ATP were added, and reacted at 37° C. for 20 min. After completion of the reaction, the reaction was terminated by adding 20˜50 μl of 1N HCl. Following termination, lipid was separated and purified by adding 1 ml of chloroform, and dried under nitrogen gas. An inhibitory effect against sphingosine kinase was found by measuring isotope with scintillation counter and then determining produced sphingosine-1-phosphate. In the graph, indicated in FIG. 3, Y axis represents CPM and X axis represents concentration (μM).

[4] = test system: HL60 cell; assay: MTT assay, apoptosis inducing effect on HL60 cell; format: cell-based; conditions: 0.5 M˜[…], 24 hrs, FIG. 4
Procedure: An apoptosis inducing effect of N,N-dimethylphytosphingosine was assayed. Anti-cancer effect is expressed through various signal transduction pathway depending on working mechanism and chemical structure, but consequently give rise to apoptosis which allows cells to be killed.
as §1

[5] = test system: B104 cell; assay: MTT assay, apoptosis inducing effect on B104 cell; format: cell-based; conditions: FIG. 7
Procedure: as §1
This Experiment was carried out in a manner identical to that described for example 3, except for using B104 cell to induce apoptosis.

[6] = test system: protein kinase C(PKC); assay: PKC inhibition effect using epidermis cells of rat; format: cell-based; conditions: 100 μM and 400 μM; compared with other sphingolipid derivatives; FIG. 11
Procedure: The present inventors assessed an inhibitory effect of N,N-dimethylphytosphingosine on protein kinase C(PKC) using epidermis cells of rat. Epidermis cells were cultured to 2×10^7 cell/ml. N,N-dimethylphytosphingosine and other sphingolipid derivatives (100 μM and 400 μM respectively) were added, and reacted. The cells were washed with PBS and disrupted with homogenizer. The disruption of cells was centrifuged, and the supernatant was passed through DE52 column to obtain a portion containing protein kinase C. For activated PKC reaction, a tube containing 5 μl of PKC coactivation 5× buffer, PKC activation 5× buffer, PKC biotinylated peptide substrate, [32P]ATP mix respectively were prepared as a control. Also, other individual tubes containing 5 μl of PKC coactivation 5× buffer, control 5× buffer, PKC biotinylated peptide substrate, [32P]ATP mix were prepared further containing 5 μl of the relevant enzyme in each tube. The reaction was performed at 30° C. for 5 min. Thereafter, terminating solution (12.5 μl) was added to quench the reaction. The reaction solution (10 μl) was dropped on SAM2™ membrane, washed with 2 M NaCl (1×, 30 seconds), 2 M NaCl (3×, 2 min), 1% H3PO4 and 2M NaCl solution (4×, 2 min), and distilled water (2×, 30 seconds), dried and then measured isotope to assess the effect of PKC inhibition. The results were in FIG. 11. […]

[7] = test system: Bacillus licheniformis; assay: Antibacterial effect, colony counting; format: cell-based; conditions: B. licheniformis, FIG. 12
Procedure: (§2) The present inventors performed experiment using Bacillus licheniformis (Gram positive bacteria) and E. coli(Gram negative bacteria) to test an antibacterial activity of N,N-dimethylphytosphingosine. In this experiment, autoclaved LB (bactopeptone 10 g/l, yeast extracts 5 g/l, and sodium chloride 10 g/l) or TS (triptone 15 g/l, soitone 5 g/l, and sodium chloride 5 g/l) was used as culture medium, and cultured at 30° C. or 37° C. for 2-3 days. After culturing, an antibacterial capacity was measured by counting the number of cells. […] Each microbe was cultured, diluted successively with 10-fold, smeared on the medium, cultured again, and then dilution rate which formed 30-300 populations per plate medium was determined. After culturing each microbe, the culture was diluted with the determined dilution rate. At this time, 0.85% NaCl was used as a diluted solution. A sample which was prepared by above mentioned method was diluted successively with a solvent for preparing the sample. After obtaining the desired concentration, 1 ml of the diluted sample was added to 9 ml of a diluted solution of microbes, and then mixed thoroughly. After standing at 30° C. or 37° C. for 1 hr (with mixing occasionally), each 100 μl was smeared on the culture medium. After culturing under individual condition, the number of population was measured.

[8] = test system: E. coli; assay: Antibacterial effect, colony counting; format: cell-based; conditions: FIG. 12
Procedure: as §2

[9] = test system: MDA-MB-231 cell; assay: MTT assay, apoptosis inducing effect on MDA-MB-231 cell; format: cell-based; conditions: FIG. 8
Procedure: as §1
This Experiment was carried out in an identical manner to that described for example 3, except for using MDA-MB-231 cell to induce apoptosis.

[10] = test system: HaCaT cell; assay: MTT assay, apoptosis inducing effect on HaCaT cell; format: cell-based; conditions: FIG. 5
Procedure: as §1
This Experiment was carried out in an identical manner to that described for example 3, except for using HaCaT cell to induce apoptosis.

[11] = test system: histone component presented in nucleosome of cytoplasm of cell lysates; assay: Anti-histone antibody binding ELISA (mono- or oligosome detection); format: cell-based; conditions: FIG. 10
Source text: This experiment was based on the theory of ELISA. Briefly, Mono- or oligosome of degraded nucleic acid in cytoplasm can be detected by means of monoclonal antibodies which are specific for histones (H2A, H2B, H3 and H4) and single-stranded or double-stranded DNA. Cells which apoptosis was induced activated Ca2+ and Mg2+-dependent endonuclease, and the enzyme degraded adjacent double stranded DNA to form mono- or oligosome. On this account, histone which had been compactly bound to the DNA in nucleus was exposed to outside.
First, anti-histone antibody was immobilized to 96 well plate. Coating solution was added, and reaction was performed at ambient temperature for 1 hr. Then, each sample was treated to obtain cell lysates, and histone component presented in nucleosome of cytoplasm of cell lysates was adhered to the 96 well plate to which anti-histone antibody was immobilized. Above procedure was performed at 15˜25° C. for 90 min. Then, anti-DNA-peroxidase (POD) was bound to DNA part of nucleosome of cytoplasm. This procedure was performed at ambient temperature for 90 min. Unbound peroxidase conjugate was washed, ABTS(2,2′-azino-di-[3-ethylbenzthiazoline sulfonate]) was added as an substrate, reacted for 10˜20 min, and then absorbance was measured at 405 nm.

**Q.** With CCCCCCCCCCCCC/C=C/[C@@H](O)[C@H](CO)NC(C)=O [C2-ceramide, N-acylsphingosine, reference compound] as the compound, how does the “concentration at which DNA fragmentation was induced” value [1] read?
**A.** 25.0 µM

**Q.** Which “cell death (MTT assay)” value [2] does the source give for CCCCCCCCCCCCCCC(O)C(O)C(CO)N(C)C (centres unmarked) [N,N-dimethylphytosphingosine] here?
**A.** induced cell death

**Q.** What about the “cell death effect compared to dimethylsphingosine” value [2] of the same compound?
**A.** far superior to that of dimethylsphingosine

**Q.** What about the “DNA fragmentation (electrophoresis), result in words” value ([1]; DMPS 12.5-50.0 μM, C2 ceramide and CLA ceramide 25.0 and 50.0 μM) of the same compound?
**A.** obvious ladder-like DNA fragmentation at a lower concentration compared to C2-ceramide

**Q.** What about the “concentration at which DNA fragmentation was induced” value [1] of the same compound?
**A.** 25.0 µM

**Q.** And the “degree of DNA fragmentation compared to C2 ceramide” value [1]?
**A.** stronger than C2 ceramide

**Q.** And the “inhibitory effect against sphingosine kinase (produced sphingosine-1-phosphate, CPM)” value [3]?
**A.** more strong inhibitory effect than that of dimethylsphingosine

**Q.** And the “cell death (MTT assay)” value [4]?
**A.** induced cell death

**Q.** And the “cell death (MTT assay)” value [5]?
**A.** induced cell death

**Q.** And the “cell death effect compared to dimethylsphingosine” value [5]?
**A.** far superior to that of dimethylsphingosine

**Q.** What about the “inhibitory effect on PKC” value [6] of the same compound?
**A.** stronger inhibitory effect than any other compound

**Q.** And the “amount of colonies reduced to” value ([7]; 1 μg/ml)?
**A.** 40%

**Q.** And the number of colonies [7]?
**A.** reduced

**Q.** What about the “amount of colonies reduced to” value ([8]; 1 μg/ml) of the same compound?
**A.** 40%

**Q.** What about the number of colonies [8] of the same compound?
**A.** reduced

**Q.** What about the “cell death (MTT assay)” value [9] of the same compound?
**A.** induced cell death

**Q.** And the “cell death effect compared to dimethylsphingosine” value [9]?
**A.** far superior to that of dimethylsphingosine

**Q.** And the “cell death (MTT assay)” value [10]?
**A.** induced cell death

**Q.** What about the “cell death effect compared to dimethylsphingosine” value [10] of the same compound?
**A.** far superior to that of dimethylsphingosine

**Q.** What about the “absorbance (A405 nm-A490 nm), anti-histone antibody binding” value [11] of the same compound?
**A.** higher absorbance (A405 nm-A490 nm) than other controls

Reference: US20050143346A1, “Composition for treating cancer containing n,n-dimethylphytosphingosine” (priority 2002, published 2005)
